Series [1] concerns Vero cells. The experiment in a line: Cytotoxicity assay on Vero cells (alamar blue). The conditions noted are these: for IC50: Chlorocebus sabaeus, Vero.
The test system of series [2] is M. tuberculosis strain H37Rv. Description: microbe, parasite or virus in culture. Format: cell-based, Mycobacterium tuberculosis. Set-up: MICMABA: unit not given here. The conditions noted are these: for MICMABA: H37Rv, MABA, Table 9; for MIC: Mycobacterium tuberculosis.
Series [3] is described as follows: in vitro. The conditions noted are these: African green monkey, IC50 (cytotoxicity against Vero cells), Table 1.
Series [4] deals with M. tuberculosis H37Rv. The experiment in a line: microbe, parasite or virus in culture. It is filed as cell-based, Mycobacterium tuberculosis. Set-up: MICBD / MBCBD: unit not given here. The conditions noted are these: for MBCBD / MICBD: H37Rv, broth dilution, Table 9; for MBC: Mycobacterium tuberculosis, H37RV, read-out: minimum bactericidal concentration (MBC). In general terms: Broth dilution looks for growth in wells or tubes with falling amounts of substance.

Series [5] relates to V4207 (drug susceptible strain of M. tuberculosis). Description: microbe, parasite or virus in culture. Format: cell-based. The conditions noted are these: Mycobacterium tuberculosis, MABA, read-out: MIC V4207 (DS).
The subject of series [6] is M. tuberculosis H37Rv. It is filed as in vivo, BALB/c mice.
Series [7] is described as follows: Cytotoxicity assay on Vero cells (alamar blue). The conditions noted are these: African green monkey, Vero cells (ATCC CCL-81). Background: Alamar Blue is a resazurin reagent that responds to reducing activity.
Details of series [8]: species or system BALB/c mice. The conditions noted are these: mouse, in vivo. As to the method:
Female BALB/c mice (20 g each, Charles River Laboratories) were given a single dose of compound 12 at 100 mg/kg by oral gavage in a volume of 0.2 mL. […] Mouse lungs were removed, weighed and stored at −80° C. Plasma was separated by centrifugation at 12,000 x g for 20 min at 4° C. and stored at −80° C. Mouse lungs were homogenized by bead-beating in 0.5 mL of liquid chromatography/mass spectrometry (LC/MS) water and supernatants were recovered by centrifugation at 4° C. for 20 min. Concentrations of compound 12 in plasma and lung homogenate supernatants were analyzed with LC-tandem MS (LC-MS/MS, AB SCIEX QTRAP 5500 system) with compound 2 as internal standard. MS detection of mass transitions 299.01/146.1 and 299.01/131.1 was carried out. Concentration calculation was done with MultiQuant Software (Version 2.1, AB SCIEX). The pharmacokinetic profile of the test compound was analyzed from plasma and lung concentration-time data after oral administration.
A single 100 mg/kg dose of compound 12 was administered to 24 mice (3 per time point). Plasma and lung concentration of compound 12 was determined by liquid chromatography-tandem mass spectrometry.

The subject of series [9] is M. tuberculosis H37Rv. Format: cell-based, Mycobacterium tuberculosis. The conditions noted are these: 4× MIC.
The test system of series [10] is M. tuberculosis H37Rv. The conditions noted are these: 100 mg/kg oral gavage.
Setting [11] is: read-out: IC50 Vero Cells, Vero cells, Table 9.
[12] abbreviates: control strains H37Rv and V4207, read-out: MIC.
The mark [13] stands for this setting: parental H37Rv strain, read-out: MIC for H37Rv.

Here are results for 4 compounds from patent US20170044100A1, “INHIBITORS OF DRUG-RESISTANT MYCOBACTERIUM TUBERCULOSIS” (THE JOHNS HOPKINS UNIVERSITY, priority 2014, published 2017).

Converted amounts (≈) assume the structure as drawn. Read-outs that look alike come from different tables or passages of the source.

Take `Cc1cc(C)c2cc(C(=O)NC3CCCCC3)[nH]c2c1` [Compound 3, N-Cyclohexyl-4,6-dimethyl-1H-indole-2-carboxamide]: the “Selectivity Index” value in [1] was more than 256. In [1], this compound returned a selectivity index of more than 256. Besides, the IC50 in series [1] (setting [11]) is more than 64 mg/L; in [3] it was more than 200 µM. The “IC50 for Vero cell viability” value in series [1] (Vero cell line) was 16 mg/L. The MICMABA in [2] amounted to 0.125. The MIC in series [2] (H37RV) is 0.93 µM; in series [2] (setting [12]), 0.125 to 0.25 mg/L; in series [2] (setting [13]), 0.125 to 0.25 mg/L; in series [5], 0.93 µM (≈ 0.251 µg/mL). In series [4], this compound yielded an MBCBD of 0.25. In series [4], this compound yielded an MICBD of 0.25. Also, the MBC in series [4] was determined as 0.25 mg/L (≈ 0.925 µM).
Consider `Cc1cc(C)c2cc(C(=O)Nc3ccccc3)[nH]c2c1` [Compound 4, N-Phenyl-4,6-dimethyl-1H-indole-2-carboxamide], for which, in [1] (setting [11]), the IC50 was more than 64 mg/L. This compound also had an MICMABA in [2] of 1. In series [2] (H37RV), this compound returned an MIC of 3.8 µM. The compound also came in with an IC50 in [3] of more than 200 µM. For the same compound, in series [4], the MBCBD was 8 and the MICBD is 1.
For the compound `Cc1cc(C)c2cc(C(=O)NC3CCCCCCC3)[nH]c2c1` [Compound 12, N-Cyclooctyl-4,6-dimethyl-1H-indole-2-carboxamide], the entries for the “Mean lung CFU counts (standard deviation), Day 7” value in [6] (33.3 mg/kg oral gavage daily (5 days per week)), in series [6] (100 mg/kg oral gavage daily) and in series [6] (300 mg/kg oral gavage daily) were 7.184 (0.244), 6.902 (0.243) and 6.768 (0.329), respectively. Moreover, the results for the “Mean lung CFU counts (standard deviation), Day 14” value in series [6] (33.3 mg/kg oral gavage daily), in [6] (100 mg/kg oral gavage daily) and in [6] (300 mg/kg oral gavage daily) were 7.001 (0.206), 7.122 (0.148) and 6.981 (0.305), respectively. For the same compound, the “Mean lung CFU counts (standard deviation), Day 28” value in series [6] (33.3 mg/kg oral gavage daily) is on record as 6.919 (0.112); in series [6] (100 mg/kg oral gavage daily) it was 6.803 (0.068); in series [6] (300 mg/kg oral gavage daily), 6.746 (0.157). The “lung CFU counts compared to untreated mice” value in series [6] (after four weeks of treatment, 33, 100 and 300 mg/kg daily oral gavage) was “significantly lower”. The IC50 at 72 h in [7] stood at 54 µM. For the same compound, the IC50 in series [1] (read-out: IC50 Vero Cells) came to 16 mg/L (≈ 53.6 µM). The “Selectivity Index” value in series [1] (Vero IC50 versus MIC, Table 9) came out at 4000. This compound returned a selectivity index in series [1] (toxicity versus MIC) of 4000. The compound also returned an MICMABA in series [2] of 0.0039. In addition, the MIC in series [2] (H37RV) turned out to be 0.013 µM; in [2] (setting [12]) it was 0.0039 mg/L; in series [2] (setting [13]), 0.0039 mg/L; in series [5], 0.026 µM (≈ 0.00776 µg/mL). Besides, in series [2] (parental H37Rv strain), the “MIC for H37Rv” value is 0.0039 mg/L. Moreover, the “oral bioavailability in mice” value in series [8] is on record as “orally bioavailable”. In addition, in series [8] (po, 100 mg/kg), the “AUC0-24, lung” value was 31.40 mg·h/kg. Moreover, in series [4], the MBC turned out to be 0.0078 mg/L (≈ 0.0261 µM). Further, in [9], the “time to kill at least 4 log10 CFUs” value is on record as not above 5 days.
Turning to “N-(2,3,5 -methyl, 4-dimethyl)-4,6-difluoro-1H-indole-2-carboxamide”, in [2] (H37Rv MIC relative to 1h), the “activity in comparison to the 4,6-dimethyl analog (1h)” value was “as active as 1h”. Besides, in series [2], the MICMABA turned out to be 0.0039. In series [10] (Balb/c mice), the “bioavailability in vivo by serum inhibition titration” value is recorded as “bioavailable in vivo”. Further, the “serum inhibition activity compared with isoniazid” value in [10] (isoniazid positive control) is recorded as “comparable to that of isoniazid”.

In general, IC50 refers to the point on the concentration scale where inhibition reaches its midpoint.
